This is an account of results in PMC9705864, “SCO6992, a Protein with β-Glucuronidase Activity, Complements a Mutation at the absR Locus and Promotes Antibiotic Biosynthesis in Streptomyces coelicolor” (Journal of Microbiology and Biotechnology, 2021).

Assay [1] has as its target T1, MBP-SCO6992 (rSCO6992; ORF-1; absR1) (Streptomyces coelicolor, UniProt Q7AKD9).
T1 construct: N-terminal MBP fusion (pMAL-c2x) kept, about 82 kDa; E. coli JM109
T1 sequence (Q7AKD9 1-359): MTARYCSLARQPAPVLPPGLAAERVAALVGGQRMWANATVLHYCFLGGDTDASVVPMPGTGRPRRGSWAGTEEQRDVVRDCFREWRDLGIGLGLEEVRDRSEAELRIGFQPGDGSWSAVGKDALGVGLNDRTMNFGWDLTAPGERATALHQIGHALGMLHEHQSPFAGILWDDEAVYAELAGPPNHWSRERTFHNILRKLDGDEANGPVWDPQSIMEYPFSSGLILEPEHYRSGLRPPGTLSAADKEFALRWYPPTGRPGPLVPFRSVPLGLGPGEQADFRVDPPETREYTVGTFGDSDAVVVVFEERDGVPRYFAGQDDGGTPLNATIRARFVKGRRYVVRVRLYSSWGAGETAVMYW
Briefly: native PAGE zymogram with Fast Garnet. It counts as biochemical. The settings on record: 0.2 M sodium acetate pH 5.2.

The target of assay [2] is T1, MBP-SCO6992 (rSCO6992; ORF-1; absR1). Put plainly: p-nitrophenol release, absorbance at […] nm. It counts as biochemical. Particulars: 1.67 mM substrate, 83 mM acetate pH 4.5, 37°C, 1 h; without added Zn2+.

The structures appear in SMILES notation.

For the molecule `COc1ccccc1NC(=O)c1cc2cc(Br)ccc2cc1O[C@@H]1O[C@H](C(=O)O)[C@@H](O)[C@H](O)[C@H]1O` [naphthol AS-BI-β-D-glucuronide], in assay [1], the “native PAGE zymogram with Fast Garnet” value is “purified MBP-SCO6992 protein had β-glucuronidase activity on an artificial substrate such as AS-BI-β-D-glucuronide”.
On to `O=C(O)[C@H]1O[C@@H](Oc2ccc([N+](=O)[O-])cc2)[C@H](O)[C@@H](O)[C@@H]1O` [p-nitrophenyl-β-D-glucuronide], for which, in assay [2], the “p-nitrophenol release, absorbance at 415 nm” value is on record as “when measuring β-glucuronidase activity using p-nitrophenyl-β-D-glucuronide as substrate, a strong activity was detected”.
